Read-outs that look alike come from different tables or passages of the source.
Key:
[1] = systemic exposure after i.p. and oral application of CBD in mice (Deiana et al. 2012); format: in vivo; settings: 20 mg/kg, assuming dose-proportional plasma concentrations
Description: A comparative investigation for systemic exposure after i.p. and oral application of CBD in mice and rats has shown that 120 mg/kg as a single dose leads to a maximum plasma concentration of 14,000 ng/ml in mice (S. Deiana et al. (2012). Plasma and brain pharmacokinetic profile of cannabidiol (CBD), cannabidivarine (CBDV), Delta(9)-tetrahydrocannabivarin (THCV) and cannabigerol (CBG) in rats and mice following oral and intraperitoneal administration and CBD action on obsessive-compulsive behaviour. Psychopharmacology (Bed) 219(3): 859-73).

[2] = system: microglial cells; settings: 1-16 μmol/l; cited from earlier work
[3] = system: NK, NKT, T and B cells; settings: healthy rats, cited from earlier work
[4] = system: ischemia-reperfusion-induced kidney injury; settings: mice, 10 mg/kg after induced kidney injury; cited from earlier work
[5] = system: LPS-induced acute lung injury; settings: cited from earlier work
[6] = system: chemically induced acute hepatitis; settings: mice, 25 mg/kg; cited from earlier work
[7] = system: human mononuclear cells; settings: nanomolar or micromolar concentrations; cited from earlier work
[8] = mice, 120 mg/kg single dose; cited from earlier work
[9] = system: human neutrophils; settings: cited from earlier work
[10] = decimal logarithm of n-octanol/water partition coefficient; cited from earlier work
[11] = system: CD83; settings: cited from earlier work
[12] = system: LPS-induced acute lung injury; settings: mice, 20 mg/kg, 6 h after LPS; cited from earlier work
[13] = system: IL-6 secretion; settings: cellular models, majority of cases; cited from earlier work
[14] = system: activated memory T cell line; settings: 1-5 μmol/l, cited from earlier work
[15] = molecular target: T1, IL-6 receptor (Homo sapiens, UniProt P08887); settings: patients with severe SARS-CoV-2 pneumonia, preliminary clinical data; cited from earlier work
T1 construct: host or cells: patients (in vivo)
T1 sequence (P08887 20-468): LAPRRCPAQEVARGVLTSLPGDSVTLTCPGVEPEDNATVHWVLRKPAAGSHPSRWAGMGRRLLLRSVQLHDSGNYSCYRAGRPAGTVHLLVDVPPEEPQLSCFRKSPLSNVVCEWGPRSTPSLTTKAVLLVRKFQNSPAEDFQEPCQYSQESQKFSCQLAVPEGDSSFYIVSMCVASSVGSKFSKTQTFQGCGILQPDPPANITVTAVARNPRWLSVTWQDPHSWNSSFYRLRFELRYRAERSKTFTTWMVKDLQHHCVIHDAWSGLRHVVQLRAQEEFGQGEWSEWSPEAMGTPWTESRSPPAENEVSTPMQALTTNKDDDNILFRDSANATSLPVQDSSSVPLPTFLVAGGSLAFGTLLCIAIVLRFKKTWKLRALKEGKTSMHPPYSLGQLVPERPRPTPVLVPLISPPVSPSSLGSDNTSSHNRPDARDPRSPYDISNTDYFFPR

[16] = mice, 0.3-80 mg/kg i.p. 60 min before LPS

Q: For C=C(C)[C@@H]1CCC(C)=C[C@H]1c1c(O)cc(CCCCC)cc1O [CBD, 2-[(1R,6R)-3-methyl-6-(1-methylethenyl)-2-cyclohexen-1-yl]-5-pentyl-1,3-benzenediol], which target peak exposure [1] is on record?
A: The target peak exposure was 2,300 ng/ml.

Q: What about the “apoptosis in microglial cells” value [2] of the same compound?
A: Its value is “induces apoptosis”.

Q: What about the “numbers of NK cells and NKT cells” value ([3]; 2.5 mg/kg per day) of the same compound?
A: The value was “increased”.

Q: And the “numbers of NK cells and NKT cells” value ([3]; 5 mg/kg per day)?
A: The value was “not affected”.

Q: And the “number of T cells including T helper cells and cytotoxic T cells and of B cells” value ([3]; daily 5 mg/kg)?
A: The value was “significantly reduced”.

Q: What about the “decreased Treg17 and increased Th17 levels” value [4] of the same compound?
A: The value was “reversed”.

Q: And the “effect on induced kidney injury” value [4]?
A: The value was “renoprotective”.

Q: And the “number of leukocytes including macrophages and neutrophils in bronchoalveolar lavage fluid” value ([5]; mice, 20 mg/kg, after LPS-induced lung inflammation)?
A: Its value is “decreases”.

Q: And the myeloperoxidase activity [5, 16]?
A: The myeloperoxidase activity was “significantly decreased”.

Q: And the “pro-inflammatory cytokine production including TNF-α and IL-6” value [5, 16]?
A: Its value is “significantly decreased”.

Q: What about the total leukocytes migration [5, 16] of the same compound?
A: The total leukocytes migration was “significantly decreased”.

Q: And the vascular permeability [5, 16]?
A: Its vascular permeability is “significantly decreased”.

Q: What about the “dose at which effects reached a nearly maximum extent” value ([5]; prophylactic application, i.p.) of the same compound?
A: Its value is 20 mg/kg.

Q: And the “expression of MDSCs” value [6]?
A: Its value is “induces”.

Q: And the “pro-inflammatory cytokines such as IL-2, TNF-α and IL-6” value [6]?
A: The value was “reduction”.

Q: And the “release of pro-inflammatory cytokines” value [7]?
A: Its value is “suppressed”.

Q: And the maximum plasma concentration [8]?
A: The maximum plasma concentration was 14,000 ng/ml.

Q: What about the “migration of human neutrophils” value [9] of the same compound?
A: The value was “inhibits”.

Q: And the “log P” value [10]?
A: Its value is “about 6.1”.

Q: And the “CD83 dendritic cell activation marker” value ([11]; dendritic cells derived from healthy individuals)?
A: Its value is “not”.

Q: What about the “CD83 dendritic cell activation marker” value ([11]; dendritic cells derived from individuals with HIV infection) of the same compound?
A: Its value is “suppresses”.

Q: And the “leukocyte migration (neutrophil, macrophages and lymphocytes) into the lungs” value [12]?
A: The value was “decreased”.

Q: What about the mechanical lung function [12] of the same compound?
A: The mechanical lung function was “improved”.

Q: And the “myeloperoxidase activity in the lung tissue” value [12]?
A: Its value is “decreased”.

Q: What about the “production of proinflammatory cytokines/chemokines” value [12] of the same compound?
A: Its value is “reduced”.

Q: What about the vascular permeability [12] of the same compound?
A: Its vascular permeability is “reduced”.

Q: And the “effective concentration, suppressive effect on IL-6 secretion” value [13]?
A: Its value is roughly 5 µM.

Q: And the “IL-6 production and secretion” value [14]?
A: The value was “decreased”.

Q: And the “production of IL-10” value [14]?
A: Its value is “increased”.

Q: And the “autoantigen-specific Th17 cell phenotype (IL-17)” value ([14]; dose-dependently)?
A: The value was “reduced”.

Q: Which “clinical effect of IL-6 blockade therapy” value [15] does the source give for “tocilizumab: humanized monoclonal antibody against the IL-6 receptor” here?
A: Its value is “beneficial effects”.

— patent US20230181484A1, “Uses and Formulations of Cannabinoids” (priority 2020, published 2023)
